Entries after “also recorded” stand apart in the source; their conditions may differ.
Legend:
Format in all cases: cell-based, Clostridium perfringens
[1] = test system: perfringolysin O (pfoA) toxin secreted by C. perfringens CP4.6
C. perfringens CP4.6 = test system: C. perfringens CP4.6
netB gene = test system: netB gene
[2] = test system: C. perfringens strain 4.6
[3] = test system: C. perfringens strain 4.6; remark: listed apart in the source
agrD gene = test system: agrD gene

Substance: fengycin
- hemolysis activity (zone of clearing) [1]: reduced significantly; also recorded: completely inhibited
- C. perfringens cell growth (planktonic cell count) (C. perfringens CP4.6): did not interfere and had minimal effect on C. perfringens cell growth
- expression of netB gene (netB gene): downregulated
- lowest concentration that downregulates expression of netB (netB gene): 0.1 ppm
- cell growth (cell count, cfu/ml) [2]: did not interfere and had minimal effect on cell growth
- biofilm formation [3]: inhibited the ability of the organism to form biofilm
- expression of agrD gene (agrD gene): downregulated
- lowest concentration that downregulates expression of agrD (agrD gene): 0.1 ppm
